Several values for one entry are separate records, joined by “and”; a condition that tells them apart may be missing. Equal values may be shown once.
System: ANGIOTENSIN II (AII) VASOPRESSOR RESPONSE
Test: AII Challenge: blockade of the angiotensin II vasopressor response in conscious spontaneously hypertensive rats
Assay type: in vivo, rat (Male Okamoto-Aoki SHR)
Excerpt: By administering a compound of this invention to a rat, and then challenging with angiotensin II, a blockage of the vasopressor response is realized.
Conscious Male Okamoto-Aoki SHR, 16-20 weeks old, weighing approximately 330 g are purchased from Charles River Labs (Wilmington, Mass.). Conscious rats are restrained in a supine position with elastic tape. The area at the base of the tail is locally anesthetized by subcutaneous infiltration with 2% procaine. The ventral caudal artery and vein are isolated, and a cannula made of polyethylene (PE) 10-20 tubing (fused together by heat) is passed into the lower abdominal aorta and vena cava, respectively. The cannula is secured, heparinized (1,000 I.U./ml), sealed and the wound is closed. The animals are placed in plastic restraining cages in an upright position. The cannula is attached to a Statham P23Db pressure transducer, and pulsatile blood pressure is recorded to 10-15 minutes with a Gould Brush recorder. (Chan et al., (Drug Development Res., 18:75-94, 1989).
Angiotensin II (human sequence, Sigma Chem. Co., St. Louis, Mo.) of 0.05 and 0.1 ug/kg i.v. is injected into all rats (predosing response). Then a test compound, vehicle or a known angiotensin II antagonist is administered i.v., i.p. or orally to each set of rats. The two doses of angiotensin II are given to each rat again at 30, 60, 90, 120, 180, 240 and 300 minutes post dosing the compound or vehicle. The vasopressor response of angiotensin II is measured for the increase in systolic blood pressure in mmHg. The percentage of antagonism or blockade of the vasopressor response of angiotensin II by a compound is calculated using the vasopressor response (increase in systolic blood pressure) of angiotensin II of each rat predosing the compound as 100%. A compound is considered active if at 30 mg/kg i.v. it antagonized at least 50% of the response.

[1] = 1 mg/kg i.v., AII 0.05 mcg/kg IV, 30 min post dose
[2] = 1 mg/kg i.v., AII 0.1 mcg/kg IV, 30 min post dose
[3] = 29 mg/kg i.v., AII 0.05 mcg/kg IV, 60 min post dose
[4] = 29 mg/kg i.v., AII 0.05 mcg/kg IV, 90 min post dose
[5] = 29 mg/kg i.v., AII 0.05 mcg/kg IV, 120 min post dose
[6] = 29 mg/kg i.v., AII 0.05 mcg/kg IV, 180 min post dose
[7] = 29 mg/kg i.v., AII 0.05 mcg/kg IV, 240 min post dose
[8] = 29 mg/kg i.v., AII 0.05 mcg/kg IV, 300 min post dose
[9] = 29 mg/kg i.v., AII 0.1 mcg/kg IV, 60 min post dose
[10] = 29 mg/kg i.v., AII 0.1 mcg/kg IV, 90 min post dose
[11] = 29 mg/kg i.v., AII 0.1 mcg/kg IV, 120 min post dose
[12] = 29 mg/kg i.v., AII 0.1 mcg/kg IV, 180 min post dose
[13] = 29 mg/kg i.v., AII 0.1 mcg/kg IV, 240 min post dose
[14] = 29 mg/kg i.v., AII 0.1 mcg/kg IV, 300 min post dose
[15] = 3 mg/kg i.v., AII 0.05 mcg/kg IV, 30 min post dose
[16] = 3 mg/kg i.v., AII 0.05 mcg/kg IV, 60 min post dose
[17] = 3 mg/kg i.v., AII 0.05 mcg/kg IV, 90 min post dose
[18] = 3 mg/kg i.v., AII 0.05 mcg/kg IV, 120 min post dose
[19] = 3 mg/kg i.v., AII 0.05 mcg/kg IV, 180 min post dose
[20] = 3 mg/kg i.v., AII 0.05 mcg/kg IV, 240 min post dose
[21] = 3 mg/kg i.v., AII 0.05 mcg/kg IV, 300 min post dose
[22] = 3 mg/kg i.v., AII 0.1 mcg/kg IV, 30 min post dose
[23] = 3 mg/kg i.v., AII 0.1 mcg/kg IV, 60 min post dose
[24] = 3 mg/kg i.v., AII 0.1 mcg/kg IV, 90 min post dose
[25] = 3 mg/kg i.v., AII 0.1 mcg/kg IV, 120 min post dose
[26] = 3 mg/kg i.v., AII 0.1 mcg/kg IV, 180 min post dose
[27] = 3 mg/kg i.v., AII 0.1 mcg/kg IV, 240 min post dose
[28] = 3 mg/kg i.v., AII 0.1 mcg/kg IV, 300 min post dose

## CCCCc1nc2ccc(C3CC4C(O3)ON(c3ccccc3)C4c3ccccc3)cc2c(=O)n1Cc1ccc(-c2ccccc2-c2nnn[nH]2)cc1 (stereo not drawn) [Example 10, (3α, 3aβ, 5β, 6aβ)-2-Butyl-6-(hexahydro-2,3-diphenylfuro[3,2-d]isoxazol-5-yl)-3-[[2'-(1H-tetrazol-5-yl)[1,1'-biphenyl]-4-yl]methyl]-4(3H)-quinazolinone]
[1]
  % Inhibition: 39%
  Average Change: 33.5 mmHg
  Control Before AII (single rat): 248 mmHg and 230 mmHg
  Response After AII (single rat): 290 mmHg and 255 mmHg
  Response Change (single rat): 42 mmHg and 25 mmHg
[2]
  % Inhibition: 41%
  Average Change: 42.5 mmHg
  Control Before AII (single rat): 250 mmHg and 220 mmHg
  Response After AII (single rat): 295 mmHg and 260 mmHg
  Response Change (single rat): 45 mmHg and 40 mmHg
[3]
  % Inhibition: 82%
  Average Change: 10 mmHg
  Control Before AII (single rat): 265 mmHg and 235 mmHg
  Response After AII (single rat): 270 mmHg and 250 mmHg
  Response Change (single rat): 5 mmHg and 15 mmHg
[4]
  % Inhibition: 82%
  Average Change: 10 mmHg
  Control Before AII (single rat): 235 mmHg and 230 mmHg
  Response After AII (single rat): 250 mmHg and 235 mmHg
  Response Change (single rat): 15 mmHg and 5 mmHg
[5]
  % Inhibition: 77%
  Average Change: 12.5 mmHg
  Control Before AII (single rat): 210 mmHg and 240 mmHg
  Response After AII (single rat): 225 mmHg and 250 mmHg
  Response Change (single rat): 15 mmHg and 10 mmHg
[6]
  % Inhibition: 73%
  Average Change: 15 mmHg
  Control Before AII (single rat): 215 mmHg and 220 mmHg
  Response After AII (single rat): 235 mmHg and 230 mmHg
  Response Change (single rat): 20 mmHg and 10 mmHg
[7]
  % Inhibition: 82%
  Average Change: 10 mmHg
  Control Before AII (single rat): 220 mmHg and 215 mmHg
  Response After AII (single rat): 235 mmHg and 220 mmHg
  Response Change (single rat): 15 mmHg and 5 mmHg
[8]
  % Inhibition: 73%
  Average Change: 15 mmHg
  Control Before AII (single rat): 210 mmHg and 200 mmHg
  Response After AII (single rat): 220 mmHg
  Response Change (single rat): 10 mmHg and 20 mmHg
[9]
  % Inhibition: 86%
  Average Change: 10 mmHg
  Control Before AII (single rat): 265 mmHg and 230 mmHg
  Response After AII (single rat): 270 mmHg and 245 mmHg
  Response Change (single rat): 5 mmHg and 15 mmHg
[10]
  % Inhibition: 72%
  Average Change: 20 mmHg
  Control Before AII (single rat): 230 mmHg and 235 mmHg
  Response After AII (single rat): 250 mmHg and 255 mmHg
  Response Change (single rat): 20 mmHg
[11]
  % Inhibition: 65%
  Average Change: 25 mmHg
  Control Before AII (single rat): 200 mmHg and 215 mmHg
  Response After AII (single rat): 230 mmHg and 235 mmHg
  Response Change (single rat): 30 mmHg and 20 mmHg
[12]
  % Inhibition: 79%
  Average Change: 15 mmHg
  Control Before AII (single rat): 210 mmHg and 220 mmHg
  Response After AII (single rat): 225 mmHg and 235 mmHg
  Response Change (single rat): 15 mmHg
[13]
  % Inhibition: 79%
  Average Change: 15 mmHg
  Control Before AII (single rat): 215 mmHg
  Response After AII (single rat): 235 mmHg and 225 mmHg
  Response Change (single rat): 20 mmHg and 10 mmHg
[14]
  % Inhibition: 79%
  Average Change: 15 mmHg
  Control Before AII (single rat): 210 mmHg
  Response After AII (single rat): 230 mmHg and 220 mmHg
  Response Change (single rat): 20 mmHg and 10 mmHg

## CCCCc1nc2ccc(C3CC4C(c5ccc(C)cc5)=NOC4O3)cc2c(=O)n1Cc1ccc(-c2ccccc2-c2nnn[nH]2)cc1 (centres unmarked) [Example 12]
[15]
  % Inhibition: 56%
  Average Change: 16.5 mmHg
  Control Before AII (single rat): 220 mmHg and 255 mmHg
  Response After AII (single rat): 233 mmHg and 275 mmHg
  Response Change (single rat): 13 mmHg and 20 mmHg
[16]
  % Inhibition: 53%
  Average Change: 17.5 mmHg
  Control Before AII (single rat): 215 mmHg and 245 mmHg
  Response After AII (single rat): 235 mmHg and 260 mmHg
  Response Change (single rat): 20 mmHg and 15 mmHg
[17]
  % Inhibition: 60%
  Average Change: 15 mmHg
  Control Before AII (single rat): 225 mmHg and 235 mmHg
  Response After AII (single rat): 240 mmHg and 250 mmHg
  Response Change (single rat): 15 mmHg
[18]
  % Inhibition: 45%
  Average Change: 20.5 mmHg
  Control Before AII (single rat): 207 mmHg and 225 mmHg
  Response After AII (single rat): 233 mmHg and 240 mmHg
  Response Change (single rat): 26 mmHg and 15 mmHg
[19]
  % Inhibition: 33%
  Average Change: 25 mmHg
  Control Before AII (single rat): 195 mmHg and 225 mmHg
  Response After AII (single rat): 225 mmHg and 245 mmHg
  Response Change (single rat): 30 mmHg and 20 mmHg
[20]
  % Inhibition: 53%
  Average Change: 17.5 mmHg
  Control Before AII (single rat): 220 mmHg and 230 mmHg
  Response After AII (single rat): 240 mmHg and 245 mmHg
  Response Change (single rat): 20 mmHg and 15 mmHg
[21]
  % Inhibition: 48%
  Average Change: 19.5 mmHg
  Control Before AII (single rat): 220 mmHg and 230 mmHg
  Response After AII (single rat): 245 mmHg and 244 mmHg
  Response Change (single rat): 25 mmHg and 14 mmHg
[22]
  % Inhibition: 53%
  Average Change: 18.5 mmHg
  Control Before AII (single rat): 218 mmHg and 250 mmHg
  Response After AII (single rat): 245 mmHg and 260 mmHg
  Response Change (single rat): 27 mmHg and 10 mmHg
[23]
  % Inhibition: 42%
  Average Change: 22.5 mmHg
  Control Before AII (single rat): 220 mmHg and 240 mmHg
  Response After AII (single rat): 245 mmHg and 260 mmHg
  Response Change (single rat): 25 mmHg and 20 mmHg
[24]
  % Inhibition: 29%
  Average Change: 27.5 mmHg
  Control Before AII (single rat): 220 mmHg and 230 mmHg
  Response After AII (single rat): 250 mmHg and 255 mmHg
  Response Change (single rat): 30 mmHg and 25 mmHg
[25]
  % Inhibition: 23%
  Average Change: 30 mmHg
  Control Before AII (single rat): 205 mmHg and 225 mmHg
  Response After AII (single rat): 240 mmHg and 250 mmHg
  Response Change (single rat): 35 mmHg and 25 mmHg
[26]
  % Inhibition: 42%
  Average Change: 22.5 mmHg
  Control Before AII (single rat): 205 mmHg and 225 mmHg
  Response After AII (single rat): 225 mmHg and 250 mmHg
  Response Change (single rat): 20 mmHg and 25 mmHg
[27]
  % Inhibition: 10%
  Average Change: 35 mmHg
  Control Before AII (single rat): 220 mmHg and 225 mmHg
  Response After AII (single rat): 260 mmHg and 255 mmHg
  Response Change (single rat): 40 mmHg and 30 mmHg
[28]
  % Inhibition: 10%
  Average Change: 35 mmHg
  Control Before AII (single rat): 220 mmHg and 225 mmHg
  Response After AII (single rat): 255 mmHg and 260 mmHg
  Response Change (single rat): 35 mmHg
